In US20020137891A1, “Protein scaffold and its use to multimerise monomeric polypeptides” (priority 1999, published 2002):

Assays:
bacteriophage λ (b2cI) = experiment: Growth (plaque formation) of bacteriophage λ at 30° C. in transformed wild-type and groEL mutant strains; assay type: cell-based, E. coli
Source text: Bacterial and bacteriophage strains. The E. coli strains used in this study were: C41(DE3), a mutant of BL21(DE3) capable of expressing toxic genes (Miroux, B. & Walker, J. E. (1996) J. Mol. Biol. 260, 289-298); SV2 (B178groEL44), SV3 (B178groEL59) and SV6 (B178groEL673): isogenic strains carrying temperature-sensitive alleles of groEL; SV1(=B178) (Georgopoulos, C., Hendrix, R. W., Casjens, S. R. & Kaiser, A. D. (1973) J. Mol. Biol. 76, 45-60), AI90 (ΔgroEL::kan^R) [pBAD-EL] (Ivic, A., Olden, D., Wallington, E. J. & Lund, P. A. (1997) Gene 194, 1-8), and TG1 (Gibson, T. J. (1984) Ph.D. thesis, University of Cambridge, U.K). Bacteriophage λb2cI (Zeilstra-Ryalls, J., Fayet, O., Baird, L. & Georgopoulos, C. (1993) J. Bacteriol. 175, 1134-1143) was used according to standard methods (Arber, W., Enquist, L., Hohn, B., Murray, N. E. & Murray, K. (1983) in Lambda II., ed. R. W. Hendrix, J. W. r., F. W. Stahl and R. A. Weisberg (Cold Spring Harbor Laboratory, Cold Spring Harbor, N.Y.), pp. 433-466); plaque formation was assayed at 30° C. T4D0, a derivative of bacteriophage T4 (Zeilstra-Ryalls, J., Fayet, O., Baird, L. & Georgopoulos, C. (1993) J. Bacteriol. 175, 1134-1143), was used according to standard methods (Karam, J. D. (1994) Molecular biology of bacteriophage T4. (American Society for Microbiology, Washington, D.C.)); plaque formation was assayed at 37° C.
Bacteriophage λ requires the chaperonins GroES and GroEL for protein folding during morphogenesis; bacteriophage T4 requires GroEL and Gp31, the latter being encoded by the bacteriophage genome (Zeilstra-Ryalls, J., Fayet, O. & Georgopoulos, C. (1991) Annu. Rev. Microbiol. 45, 301-325). Nine groE alleles which fail to support λ growth have been sequenced (Zeilstra-Ryalls, J., Fayet, O., Baird, L. & Georgopoulos, C. (1993) J. Bacteriol. 175, 1134-1143). We examined the ability of MC7, over-expressed from the constitutive tet promoter on a high-copy number vector (see FIG. 2), to complement three mutant groEL alleles for plaque formation by λ (b2cI) at 30° C. (Table 3) and T4 at 37° C. (Table 4).

[1] = test system: mutant Huntingdon exon 1-expressing PC12 and SH-SY5Y cells; experiment: Inclusion formation and cell death in mutant Huntingdon exon 1-expressing cells on overexpression of chaperones; assay type: cell-based
Source text: These phenomena have been studied by transiently transfecting part of Huntingdon exon 1 in COS-7, PC12, and SH-SY5Y cells. Inclusion formation was not seen with constructs expressing 23 glutamines but was repeat length and time dependent for mutant constructs with 43-74 repeats. HSP70, HSP40, the 20S proteasome and ubiquitin colocalized with inclusions. […] Thus, inclusion formation may be enhanced in polyglutamine diseases, if the pathological process results in proteasome inhibition or a heat-shock response. […] To our knowledge, this is the first report of an HSP increasing aggregation of an abnormally folded protein in mammalian cells and expands the current understanding of the roles of HDJ-2yHSDJ in protein folding (See Wyttenbach, A. et al. (2000) Proc. Natl. Acad. Sci. USA 97, 2899-2903).
We have tested MC72 in the same system.

[2] = test system: AI90 (ΔgroEL::kan^R) [pBADEL] E. coli strain; experiment: Plating ability of transformed AI90 (ΔgroEL::kan^R) [pBAD-EL] at 37° C. on depletion of GroEL; assay type: cell-based
Method: AI90 (ΔgroEL::kan^R) [pBAD-EL] cells were transformed with the pJC vector series. Transformants were selected at 37° C. on LB supplemented with 50 μg.ml^−1 of kanamycin, 120 μg.mL^−1 of ampicillin, 25 μg.mL^1 of chloramphenicol and 0.2% L(+)arabinose. Depletion of GroEL protein was analysed at 37° C. by plating the same quantity of AI90 [pBAD-EL+pJC vectors] cells on LB plates containing 1% D(+)glucose or various amount of arabinose.
Each experiment was performed in triplicate. Plasmids carrying no groE genes or encoding the GroE proteins were used as negative or positive controls, respectively.

E. coli SV6 groEL673 = experiment: In vivo complementation of thermosensitive groEL mutant at 43° C., strain SV6; assay type: cell-based; details: pJC plasmid, relative to growth at 30° C.
Method: In vivo complementation experiments. Complementation experiments were performed by transforming electro-competent SV2 or SV6 cells with the pJC series of expression vectors and plating an aliquot of the transformation reactions directly at 43° C. The percentage of viable cells relative to the growth at 30° C. was determined. A representative number of clones which grew at 43° C. were incubated in absence of any selective markers at permissive temperature. After prolonged growth the loss of the pJC plasmids and the ts phenotype were verified. Each experiment was performed in duplicate. Plasmids carrying no groE genes or encoding the GroE proteins were used as negative or positive controls, respectively.

GroES = GroES (Escherichia coli, UniProt P0A6F9); details: read-out: apparent dissociation constant for the formation of the GroEL-GroES complex; cited from earlier work
Chain of GroES (P0A6F9 whole entry): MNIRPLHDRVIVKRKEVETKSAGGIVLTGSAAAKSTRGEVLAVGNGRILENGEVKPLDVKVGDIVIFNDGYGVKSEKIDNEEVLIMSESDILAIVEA

SV2 [pBADGroES] = details: SV2 over-expressing GroES from pBAD

With “GroEL (1-548): E. coli molecular chaperone, 14 subunits of 57.5 kD in two seven membered rings [reference compound]” the “Complementation of groEL mutant strains for bacteriophage λ growth (in words)” value (bacteriophage λ (b2cI)) was “weak complementation of λ growth in SV2 (groEL44) and SV3 (groEL59; Ser201→Phe)”, the “Effect of over-expression on plaque formation by bacteriophage λ in SV1 (groE^+) (in words)” value (bacteriophage λ (b2cI)) was “suffices to inhibit λ growth” and the “Growth of bacteriophage λ, SV1 (groEL^+)” value (bacteriophage λ (b2cI); pJC plasmid) was “− (no visible plaques (<10^−4))”. For the same substance, the “Growth of bacteriophage λ, SV2 groEL44” value (bacteriophage λ (b2cI); pJC plasmid) was “+ (10-fold fewer plaques, or plaque size reduced relative to wild-type groEL^+ strain, or both)”, the “Growth of bacteriophage λ, SV3 GroEL59” value (bacteriophage λ (b2cI); pJC plasmid) was “++ (5-fold fewer plaques relative to wild-type groEL^+ strain, or both)” and the “Growth of bacteriophage λ, SV6 groEL673” value (bacteriophage λ (b2cI); pJC plasmid) was “+/− (10^2-fold fewer plaques and plaque size reduced relative to wild-type groEL^+ strain)”. For the same substance, the cell death [1] was “had no effect”, the inclusion formation [1] was “had no effect” and the Plating ability ([2]; 0.00 % L(+)arabinose) was “+++ (growth identical to that in presence of 0.2% L(+)arabinose (100%), in terms of both number and size)”. The Plating ability ([2]; 0.01 % L(+)arabinose) was “+++ (growth identical to that in presence of 0.2% L(+)arabinose (100%), in terms of both number and size)”, the Plating ability ([2]; 0.10 % L(+)arabinose) was “+++ (growth identical to that in presence of 0.2% L(+)arabinose (100%), in terms of both number and size)” and the Plating ability ([2]; 0.15 % L(+)arabinose) was “+++ (growth identical to that in presence of 0.2% L(+)arabinose (100%), in terms of both number and size)”. The “Relative colony forming ability, SV6 groEL673” value (E. coli SV6 groEL673) was 1, the Kd (GroES) was 1000 nM and the “Plaque size and number” value (SV2 [pBADGroES]) was “do not completely eliminate them”.
